Data published in paper PMC6696115, “Characterization of Antimicrobial, Antioxidant, and Leishmanicidal Activities of Schiff Base Derivatives of 4-Aminoantipyrine” (Molecules, 2019).

Assays:
[1] = tested on: Aspergillus niger ATCC 6275; assay: antimicrobial serial microdilution, A. niger; format: cell-based; details: Aspergillus niger, ATCC6275; serial microdilution, 96-well plates, 35 °C, 48 h, max 2% DMSO
Protocol: (§1) The in vitro antifungal and antimicrobial activities were determined by testing the Schiff bases against the fungi Saccharomyces cerevisiae, Candida albicans, and Aspergillus niger and the bacteria Staphylococcus aureus, Enterococcus faecalis (Gram-positive), Pseudomonas aeruginosa, and Escherichia coli (Gram-negative).
(§2) The bacterial inoculum was prepared by emulsifying overnight colonies from an agar medium in broth (Mueller–Hinton broth). The suspensions were adjusted to a final organism density of 5 × 10^5 colony former units (cfu)/mL. […] The emulsifying of A. niger cultures was done by pouring 5 mL of saline and 0.1% of polysorbate 80 over the Petri dishes. Then, 100 µL of this suspension were diluted in 5 mL of saline and adjusted to an optical density of 0.1 at 530 nm. For S. cerevisiae, fresh exponential YPAD (yeast extract 1%, peptone 2%, adenine 0.004%, […]) cultures were adjusted to an optical density of 0.5 at 600 nm, and then diluted to the equivalent of 1 × 10^4 cells/mL (10^−3 dilution). Stock solutions of Schiff bases were prepared by dissolving them in DMSO at 10 mg/mL. […] The range of concentrations used was empirically selected for each organisms and the Schiff base. Drug sensitivities were assayed by serial dilutions in 96-well plates as previously described. A row with media and cells but without drug was the positive control. The blank was done by preparing a row with media and drugs, but without cells. Plates were fitted with a tight lid before incubation to prevent desiccation. […] The minimum bactericidal concentration (MBC) and fungicidal concentration (MFC) were determined by spreading 100 µL of culture from each well onto a plate (Mueller–Hinton agar for bacteria, Sabouraud dextrose agar for fungi except S. cerevisiae, and YPAD for S. cerevisiae).

[2] = tested on: S. cerevisiae (backgrounds W303 and BY4741); assay: antimicrobial serial microdilution, S. cerevisiae; format: cell-based, Saccharomyces cerevisiae; details: Saccharomyces cerevisiae; serial microdilution, 35 °C, 48 h; read-out: MIC S. cerevisiae
Protocol: as §1, §2

P. aeruginosa ATCC 27853 = assay: antimicrobial serial microdilution, P. aeruginosa; format: cell-based; details: Pseudomonas aeruginosa, ATCC27853, 37 °C, 24 h
Protocol: as §1, §2

[3] = tested on: promastigotes from L. mexicana (M379); assay: leishmanicidal activity, MTT colorimetric assay; format: cell-based; details: Leishmania mexicana, 48 h exposure, 1% DMSO
Protocol: Leishmanicidal activities of all Schiff bases were evaluated by measuring promastigote mitochondrial activity using MTT colorimetric assay as described previously. […] The medium was renewed every four days. Parasite density was determined in a Neubauer chamber.
Into each well of a 96-well cell culture dish was dispensed 1 × 10^6 parasites. A stock solution of each of the Schiff Base was prepared in DMSO, and serial dilutions were added to the parasite suspension, keeping the solvent concentration at 1%. The final volume was 100 µL for each well and triplicate conditions were carried out. Pentamidine treatment (100 µg/mL) and untreated parasites were used as positive control and negative control, respectively. After exposure to the compounds for 48 h in culture medium, 10 µL of a solution of 5 mg/mL MTT dissolved in PBS was added to each well. […] Later, the plate was centrifuged at 4400 rpm for 10 min and the culture medium was then aspirated. Next, 100 µL of DMSO were added into each well to solubilize the formazan and the plate was shaken for 5 min. The colored formazan salt was measured by recording changes in absorbance at 570 nm using a microplate reader, a BioTek Synergy HT spectrophotometer. A reference wavelength of 630 nm was used to subtract background. Optical densities were analyzed as the quantity of formazan is directly proportional to the number of viable parasites. Data were analyzed with the statistical software GraphPad Prism.

SMILES: Cc1c(N=Cc2ccccc2O)c(=O)n(-c2ccccc2)n1C [Compound 3b, 4-(2-Hydroxybenzylideneamino)-1,5-dimethyl-2-phenyl-1H-pyrazol-3(2H)-one]
- MIC [1]: > 200 µg/mL
- MIC [2]: > 200 µg/mL
- MIC (P. aeruginosa ATCC 27853): > 200 µg/mL
- IC50 [3]: > 200 µM
